Results: US6946446B2, “Anti-infective agents useful against multidrug-resistant strains of bacteria” (Abbott Laboratories, priority 2000, dated 2005)
Values after ≈ are worked out from the molar mass of the structure shown.

Legend:
S. aureus A-5278 = assay: In vitro antibacterial activity, agar dilution MIC; assay type: cell-based, Staphylococcus aureus; conditions: BHI agar dilution, 35-37° C., 20 to 24 hours
Description: (§1) Representative compounds of the present invention were assayed in vitro for antibacterial activity as follows: Petri dishes containing successive aqueous dilutions of the test compound mixed with 10 mL of sterilized Brain Heart Infusion (BHI) agar (Difco 0418-01-5) were prepared. Each plate was inoculated with 1:100 dilutions of a different microorganism, using a Steers replicator block. The inoculated plates were incubated at 35-37° C. for 20 to 24 hours. In addition, a control plate, using BHI agar containing no test compound, was prepared and incubated at the beginning and end of each test.
(§2) An additional plate containing a compound having known susceptibility patterns for the organisms being tested and belonging to the same antibiotic class as the test compound was also prepared and incubated as a further control, as well as to provide test-to-test comparability. Erythromycin A was used for this purpose.
(§3) After incubation, each plate was visually inspected. The minimum inhibitory concentration (MIC) was defined as the lowest concentration of drug yielding no growth, a slight haze, or sparsely isolated colonies on the inoculum spot as compared to the growth control.

[1] = system: Resistant Staphylococcus aureus 1775; assay: In vitro antibacterial activity, agar dilution MIC; assay type: cell-based; conditions: BHI agar dilution, 35-37° C., 20 to 24 hours
Description: as §1, §2, §3

Row | Compound | MIC S. aureus A-5278 (S. aureus A-5278) | MIC S. aureus 1775 [1] | MIC (S. aureus A-5278; Staphylococcus aureus, A5278) | MIC ([1]; Staphylococcus aureus, read-out: MIC S. aureus 1775)
1 | CC[C@H]1OC(=O)[C@H](C)[C@@H](O[C@H]2C[C@@](C)(OC)[C@@H](O)[C@H](C)O2)[C@H](C)[C@@H](O[C@@H]2O[C@H](C)C[C@H](N(C)C)[C@H]2O)[C@](C)(O)C[C@@H](C)C(=O)[C@H](C)[C@@H](O)[C@]1(C)O [Erythromycin, Erythromycin A, reference compound] | >100 µg/mL | >100 µg/mL |  | 
2 | CCON=C1C(C)CC(C)(OCC=Cc2cnc3ccccc3c2)C(OC2OC(C)CC(N(C)C)C2O)C(C)C(=O)C(C)C(=O)OC(CC)C(C)(O)C(O)C1C (stereo not shown) [Ex. 1, 6-O-[3-(3-quinolyl)-2-propen-1-yl]-3-descladinose-3-oxo-9-[(O-ethyl)oxime] Erythromycin A] | 25 µg/mL (≈ 31.9 µM) | 12.5 µg/mL (≈ 15.9 µM) |  | 
3 | CCC1OC(=O)C(C)C(OC2CC(C)(OC)C(O)C(C)O2)C(C)C(OC2OC(C)CC(N(C)C)C2O)C(C)(OCc2cccc(I)c2)CC(C)C(=NO)C(C)C(O)C1(C)O (stereo not shown) [Ex. 12, 6-O-[(3-Iodo)benzyl]-9-oxime Erythromycin A] | 25 µg/mL (≈ 25.9 µM) | 25 µg/mL (≈ 25.9 µM) |  | 
4 | CCC1OC(=O)C(C)C(OC2CC(C)(OC)C(O)C(C)O2)C(C)C(OC2OC(C)CC(N(C)C)C2O)C(C)(OCc2ccc(-c3ccccc3)cc2)CC(C)C(=NO)C(C)C(O)C1(C)O (stereo not shown) [Ex. 13, 6-O-[(4-Phenyl)benzyl]-9-oxime Erythromycin A] | 50 µg/mL (≈ 54.6 µM) | 25 µg/mL (≈ 27.3 µM) |  | 
5 | COc1cccc(OC)c1C(=O)N[C@@H]1C(=O)N2[C@@H]1SC(C)(C)[C@@H]2C(=O)O [Methicillin, reference compound] |  |  | > 100 µg/mL | > 100 µg/mL
